Legend:
FAST [1] = target: T1, FAST (Halorhodospira halophila, UniProt P16113, C69G/D97P/F96I/M100R/Q99S/T101G/T95M/Y94W/Y98T); test: Affinity constants by spectrofluorometric titration of FAST with fluorogen; type: binding
T1 construct: His-tag; made in house; host or cells: Rosetta(DE3)pLysS E. coli
Procedure: (§1) The UV/Vis absorption spectra were recorded with 1 cm × 1 cm quartz cuvettes (Hellma) on a diode array UV/Vis spectrophotometer (Evolution array, Thermo Scientific). The corrected fluorescence spectra upon one-photon excitation were recorded with a Photon Technology International QuantaMaster QM-1 spectrofluorimeter (PTI, Monmouth Junction, NJ) equipped with a Peltier cell holder (TLC50, Quantum Northwest, Shoreline, WA). The overall emission quantum yields after one-photon excitation φ were determined as previously described.[14]

[2] = Physico-chemical properties of free fluorogens in aqueous solutions; type: physicochemical; conditions: free fluorogen; for pKa: aqueous solution, read-out: pKA, acidity constant
Procedure: as §1, with “pH measurements were performed on a standard pH meter PHM210 Radiometer Analytical (calibrated with aqueous buffers at pH 4 and 7 or 10) with a Crison 5208 Electrode (Barcelona, Spain). The UV/Vis” for “The UV/Vis”
HBR-3,5DOM in aqueous solutions. Abbreviations are as follows : pKA, acidity constant ;
λabs,neutral, wavelength of maximal absorption of the protonated state; λabs,anionic, wavelength of
maximal absorption of the anionic state.
Fluorogen pKA λabs,neutral (nm) λabs,anionic (nm)

FAST [3] = target: T1, FAST; test: Spectroscopic properties of FAST:fluorogen complexes in PBS pH 7.4 (absorption, emission, quantum yield); type: physicochemical; conditions: for Brightness = ε × φ / ε, molar absorption coefficient at λ abs / φ, fluorescence quantum yield / λ abs, wavelength of maximal absorption / λ em, wavelength of maximal emission / F bound/F unbound, fluorescence activation upon FAST binding / Δλ abs = λ abs,bound – λ abs,unbound, absorption red-shift upon FAST binding: PBS pH 7.4
Procedure: as §1

HeLa cells = test: LIVE/DEAD viability/cytotoxicity assay; type: cell-based; conditions: 5 µM, 24 h, calceinAM and EthD1
Procedure: The HeLa cells were treated with DMEM media containing the fluorogens at the indicated concentrations for the indicated times. The cell viability was evaluated by fluorescence microscopy using the LIVE/DEAD® viability/cytotoxicity assay kit (Molecular Probes, Life Technologies) following the manufacturer’s protocol.
Figure S2. Viability assay of HeLa cells incubated for 24 h with solutions of HBR-3,5DM, HBR-3OM and HBR-3,5DOM at 5 µM. Cell viability was tested by using calceinAM and EthD1 (LIVE/DEAD® viability/cytotoxicity assay kit). CalceinAM is a cell-permeant profluorophore cleaved by intracellular esterases releasing the green fluorescent polyanionic calcein in live cells. EthD1 (Ethidium homodimer 1) is a non cell-permeant nucleic acid red fluorescent stain that enters only cells with damaged membranes and undergoes a fluorescence enhancement upon binding to nucleic acids, thereby producing a bright red fluorescence in dead cells. Control experiments with HeLa cells non-incubated with dye (A) or incubated for 30 min with 1% hydrogen peroxyde (B) are shown. Cell fluorescence was evaluated by confocal microscopy.
3OM and HBR-3,5DOM are non-toxic for HeLa cells at the concentrations used for imaging.
(1 picture or pasted object on this page, not shown here)

[4] = FAST:fluorogen complex, listed as FAST:HBR-2,5DM
[5] = FAST:fluorogen complex, listed as FAST:HBR-3,5DM
[6] = FAST:fluorogen complex, listed as FAST:HBR-3OE
[7] = FAST:fluorogen complex, listed as FAST:HBR-3OM

T1 sequence (P16113 whole entry C69G/Y94W/T95M/F96I/D97P/Y98T/Q99S/M100R/T101G): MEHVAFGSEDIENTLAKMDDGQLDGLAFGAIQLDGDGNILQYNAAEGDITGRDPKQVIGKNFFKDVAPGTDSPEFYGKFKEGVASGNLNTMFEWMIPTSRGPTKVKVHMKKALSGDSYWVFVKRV

Row | SMILES | Kd (FAST [1]) [nM] | pKa [2] | λabs,anionic, wavelength of maximal absorption of the anionic state [2] [nm] | λabs,neutral, wavelength of maximal absorption of the protonated state [2] [nm] | red-shifted absorption relative to FAST:HMBR (FAST [3]; FAST:fluorogen complex) | red-shifted emission relative to FAST:HMBR (FAST [3]; FAST:fluorogen complex) | Brightness = ε × φ (FAST [3]; FAST:fluorogen complex) | ε, molar absorption coefficient at λ abs (FAST [3]; FAST:fluorogen complex) [mM^–1 cm^–1] | φ, fluorescence quantum yield (FAST [3]; FAST:fluorogen complex) [%] | F bound/F unbound, fluorescence activation upon FAST binding (FAST [3]) | Δλ abs = λ abs,bound – λ abs,unbound, absorption red-shift upon FAST binding (FAST [3]) [nm] | toxicity for HeLa cells (cell viability) (HeLa cells) | other results
1 | Cc1cc(/C=C2\SC(=S)NC2=O)c(C)cc1O [HBR-2,5DM, (Z)-5-(4-Hydroxy-2,5-dimethylbenzylidene)-2-thioxo-1,3-thiazolidin-4-one] | 8 | 8.7 | 472 | 406 | 15–20 nm | 10–20 nm | 14 500 | 50 | 29 | 430 | 88 |  | λ abs, wavelength of maximal absorption (FAST [3]; [4]): 494 nm; λ em, wavelength of maximal emission (FAST [3]; [4]): 552 nm
2 | Cc1cc(/C=C2\SC(=S)NC2=O)cc(C)c1O [HBR-3,5DM, (Z)-5-(4-Hydroxy-3,5-dimethylbenzylidene)-2-thioxothiazolidin-4-one] | 80 | 8.7 | 473 | 401 | 15–20 nm | 10–20 nm | 23 500 | 48 | 49 | 660 | 98 | non-toxic | λ abs, wavelength of maximal absorption (FAST [3]; [5]): 499 nm; λ em, wavelength of maximal emission (FAST [3]; [5]): 562 nm; overall brightness relative to the original FAST:HMBR complex (FAST [3]; higher than FAST:HMBR): 2.5 fold
3 | COc1cc(/C=C2\SC(=S)NC2=O)cc(OC)c1O [HBR-3,5DOM, (Z)-5-(4-Hydroxy-3,5-dimethoxybenzylidene)-2-thioxothiazolidin-4-one] |  | 8.3 | 484 | 407 | 40 nm | 60 nm | 12 000 | 39 | 31 | 220 | 112 | non-toxic | Stokes shift (FAST [3]; FAST:fluorogen complex): 82 nm; λ em, wavelength of maximal emission (FAST [3]; FAST:fluorogen complex): 600 nm
4 | CCc1cc(/C=C2\SC(=S)NC2=O)ccc1O [HBR-3E, (Z)-5-(3-Ethyl-4-hydroxybenzylidene)-2-thioxothiazolidin-4-one] | 80 |  |  |  |  |  | 6500 | 50 | 13 | 300 | 81 |  | λ abs, wavelength of maximal absorption (FAST [3]; FAST:fluorogen complex): 481 nm; λ em, wavelength of maximal emission (FAST [3]; FAST:fluorogen complex): 543 nm
5 | CCOc1cc(/C=C2\SC(=S)NC2=O)ccc1O [HBR-3OE, (Z)-5-(3-Ethoxy-4-hydroxybenzylidene)-2-thioxothiazolidin-4-one] | 270 |  |  |  | 15–20 nm | 10–20 nm | 7000 | 41 | 17 | 230 | 94 |  | λ abs, wavelength of maximal absorption (FAST [3]; [6]): 497 nm; λ em, wavelength of maximal emission (FAST [3]; [6]): 562 nm
6 | COc1cc(/C=C2\SC(=S)NC2=O)ccc1O [HBR-3OM, (Z)-5-(4-Hydroxy-3-methoxybenzylidene)-2-thioxo-1,3-thiazolidin-4-one] | 310 | 8.3 | 468 | 403 | 15–20 nm | 10–20 nm | 14 400 | 40 | 36 | 350 | 91 | non-toxic | λ abs, wavelength of maximal absorption (FAST [3]; [7]): 494 nm; λ em, wavelength of maximal emission (FAST [3]; [7]): 561 nm
7 | Cc1cc(C=C2SC(=S)NC2=O)ccc1O [HMBR, 4-hydroxy-3-methylbenzylidene rhodanine, reference compound] |  | 8.7 | 461 | 401 |  |  | 10 300 | 45 |  | 300 |  |  | 

Reference: article PMC5618792, “Dynamic multicolor protein labeling in living cells” (Chemical Science, 2017)
